Patent US10722512B2, “Combinations of histone deacetylase inhibitors and either HER2 inhibitors or PI3K inhibitors” (Acetylon Pharmaceuticals, Inc., priority 2013, dated 2020)

What was measured:
Hs578T = assay: Breast cancer cell viability, 48 hours, MTA assay; assay type: cell-based; settings: Homo sapiens, Hs-578T, 48 h
From the text: (§1) Cell viabilities were used to calculate “Fraction Affected” (Fa) and “Combination Index” (CI) values using the Chou-Talalay method. Any combination with a CI value<0.70 at a Fa value between 0.25 and 0.75 was defined as positive synergy.

BT474 = assay: Breast cancer cell viability, 48 hours, MTA assay; assay type: cell-based; settings: Homo sapiens, BT-474, 48 h
From the text: as §1

MDA-MB-468 = assay: Breast cancer cell viability, 48 hours, MTA assay; assay type: cell-based; settings: Homo sapiens, MDA-MB-468, 48 h
From the text: as §1

MDA-MB-436 = assay: Breast cancer cell viability, 48 hours, MTA assay; assay type: cell-based; settings: Homo sapiens, MDA-MB-436, 48 h
From the text: as §1

MDA-MB-453 [1] = assay: Breast cancer cell viability, 48 hours, MTA assay; assay type: cell-based; settings: Homo sapiens, MDA-MB-453, 48 h
From the text: as §1

BT-549 = assay: Breast cancer cell viability, 48 hours, MTA assay; assay type: cell-based; settings: Homo sapiens, BT-549, 48 h
From the text: as §1

SK-BR-3 = assay: Breast cancer cell viability, 48 hours, MTA assay; assay type: cell-based; settings: Homo sapiens, SK-BR-3, 48 h
From the text: as §1

HCC1937 = assay: Breast cancer cell viability, 48 hours, MTA assay; assay type: cell-based; settings: Homo sapiens, HCC1937, 48 h
From the text: as §1

MDA-MB-361 = assay: Breast cancer cell viability, 48 hours, MTA assay; assay type: cell-based; settings: Homo sapiens, MDA-MB-361, 48 h
From the text: as §1

MCF-7 = assay: Breast cancer cell viability, 48 hours, MTA assay; assay type: cell-based; settings: Homo sapiens, MCF7, 48 h
From the text: as §1

T-47D* = assay: Breast cancer cell viability, 48 hours, MTA assay; assay type: cell-based; settings: Homo sapiens, T47D, 48 h
From the text: as §1

ZR-75-1 = assay: Breast cancer cell viability, 48 hours, MTA assay; assay type: cell-based; settings: Homo sapiens, ZR-75-1, 48 h
From the text: as §1

MDA-MB-231 = assay: Breast cancer cell viability, 48 hours, MTA assay; assay type: cell-based; settings: Homo sapiens, MDA-MB-231, 48 h
From the text: as §1

MX-1 = assay: Breast cancer cell viability, 48 hours, MTA assay; assay type: cell-based; settings: Homo sapiens, MX1, 48 h
From the text: as §1

HCC38 = assay: Breast cancer cell viability, 48 hours, MTA assay; assay type: cell-based; settings: Homo sapiens, HCC38, 48 h
From the text: as §1

Bcap-37 = assay: Breast cancer cell viability, 48 hours, MTA assay; assay type: cell-based; settings: Homo sapiens, Bcap37, 48 h
From the text: as §1

[2] = test system: panel of nearly 100 human tumor cell lines; assay: Anti-tumor activity in a panel of nearly 100 human tumor cell lines; assay type: cell-based; settings: Her2+ breast cancer cells versus other major cancer types
MDA-MB-453 [3] = assay: Potentiation effect of HDAC6 inhibitors on Her2+ breast cancer cell lines; assay type: cell-based; settings: for cytotoxicity of HDAC6 inhibitor alone: MDA-MB-453, at the tested concentrations
Method: (§2) The IC50 (Inhibitory Concentration at which 50% of the cells are viable) values of these 4 anti-breast cancer compounds were calculated in the presence of increasing concentrations of a HDAC6 inhibitor.

BT-474 = assay: as above; assay type: cell-based; settings: for cytotoxicity of HDAC6 inhibitor alone: BT-474, at the tested concentrations
Method: as §2

[4] = Potentiation of PI3K inhibitor GDC-0941 by HDAC6 selective inhibitors (Example 7); assay type: cell-based; settings: non-cytotoxic concentrations of the HDAC6 inhibitor
[5] = test system: Her2 protein, p-EGFR, p-AKT in MDA-MB-453; assay: Her2 protein, p-EGFR and p-AKT levels after treatment; assay type: cell-based; settings: Her2+ breast cancer cell line MDA-MB-453
[6] = test system: A549 and MDA-MB-231 cancer cells; assay: Migration assay; assay type: cell-based; settings: in the presence or absence of epidermal growth factor (EGF)
Method: Many cultured cancer cells are able to migrate across a membrane and this activity indicates the metastatic potential of the cancer cells. The migration of two cancer cells, A549 and MDA-MB-231, were compared in the presence or absence of a HDAC6 inhibitor. The cancer cells were seeded and grown on a membrane surface, and the cell numbers on the other side of the membrane were counted under a microscope after 12 hours. […] In the study, an HDAC inhibitor was added to the cells either 2 hours before or when the migration was measured. The effect of HDAC6 inhibitor on Epidermal Growth Factor (EGF) stimulated cancer cell migration using 20 ng/ml of EGF in the assay was investigated.
The protocol for the Migration Assay was as follows. The compounds were prepared in DMSO at 400× stock of the final required concentrations.
200 μl of warm basal RPMI1640 medium was added to the interior of the inserts, allowed to rehydrate for 2 hours in a humidified tissue culture incubator at 37° C., 5% CO2 atmosphere. […] The number of migrated cells were counted under a microscope in five fields at 100× magnification. The viable cells were seeded in the 96 well plate with the same treatment as in the migration assay were measured using CTG (Cell Titer Glow).

HDAC6 = molecular target: T1, HDAC6 (Homo sapiens, UniProt Q9UBN7); assay: HDAC enzyme assays; assay type: biochemical
T1 construct: purchased BPS Biosciences
T1 sequence (Q9UBN7 whole entry): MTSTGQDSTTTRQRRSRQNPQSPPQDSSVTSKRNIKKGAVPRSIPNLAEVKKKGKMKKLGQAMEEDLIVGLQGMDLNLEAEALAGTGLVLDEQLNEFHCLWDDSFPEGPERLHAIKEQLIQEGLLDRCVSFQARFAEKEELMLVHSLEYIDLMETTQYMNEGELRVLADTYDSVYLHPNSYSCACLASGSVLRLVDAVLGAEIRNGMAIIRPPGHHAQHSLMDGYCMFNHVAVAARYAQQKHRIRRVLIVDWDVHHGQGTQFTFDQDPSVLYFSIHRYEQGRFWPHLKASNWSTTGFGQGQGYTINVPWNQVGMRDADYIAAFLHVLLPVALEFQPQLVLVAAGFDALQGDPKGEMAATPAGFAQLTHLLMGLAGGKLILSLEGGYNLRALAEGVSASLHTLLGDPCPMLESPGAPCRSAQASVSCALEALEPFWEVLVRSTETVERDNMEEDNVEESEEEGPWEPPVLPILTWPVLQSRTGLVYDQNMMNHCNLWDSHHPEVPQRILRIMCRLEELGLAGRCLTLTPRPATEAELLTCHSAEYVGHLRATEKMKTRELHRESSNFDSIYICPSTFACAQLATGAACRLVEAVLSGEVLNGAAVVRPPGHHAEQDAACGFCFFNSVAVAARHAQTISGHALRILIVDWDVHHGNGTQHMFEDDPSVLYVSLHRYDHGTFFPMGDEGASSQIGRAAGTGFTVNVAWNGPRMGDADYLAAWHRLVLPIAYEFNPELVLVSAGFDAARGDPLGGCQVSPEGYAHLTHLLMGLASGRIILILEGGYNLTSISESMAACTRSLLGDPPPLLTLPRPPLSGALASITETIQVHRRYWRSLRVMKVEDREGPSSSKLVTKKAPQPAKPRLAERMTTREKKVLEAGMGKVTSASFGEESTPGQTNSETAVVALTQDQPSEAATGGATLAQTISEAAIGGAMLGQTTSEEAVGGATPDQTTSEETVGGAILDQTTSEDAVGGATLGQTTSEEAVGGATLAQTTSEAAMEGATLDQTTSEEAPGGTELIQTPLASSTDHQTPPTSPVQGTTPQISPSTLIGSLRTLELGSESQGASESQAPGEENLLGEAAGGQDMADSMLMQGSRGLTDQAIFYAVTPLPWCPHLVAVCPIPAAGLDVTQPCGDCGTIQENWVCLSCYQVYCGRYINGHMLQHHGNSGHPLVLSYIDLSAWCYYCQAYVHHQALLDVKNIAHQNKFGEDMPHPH
Method: Compounds for testing were diluted in DMSO to 50 fold the final concentration and a ten point three fold dilution series was made. […] The final enzyme concentrations used in these assays were 3.3 ng/ml (HDAC1), 0.2 ng/ml (HDAC2), 0.08 ng/ml (HDAC3) and 2 ng/ml (HDAC6). […] The IC50 was determined using Graph Pad Prism by a four parameter curve fit.

`O=C(CCCCCCNC(=O)c1cnc(N(c2ccccc2)c2ccccc2)nc1)NO` [Compound A, 2-(diphenylamino)-N-(7-(hydroxyamino)-7-oxoheptyl) pyrimidine-5-carboxamide] showed an IC50 (Hs578T) of 5.57 µM, an IC50 (BT474) of 2.32 µM and an IC50 (MDA-MB-468) of 14.9 µM. It also gave an IC50 (MDA-MB-436) of 25.7 µM, an IC50 (MDA-MB-453 [1]) of 1.25 µM and an IC50 (BT-549) of 8.97 µM. For the same molecule, the IC50 (SK-BR-3) was 1.94 µM, the IC50 (HCC1937) was 11.2 µM and the IC50 (MDA-MB-361) was 4.51 µM. It also gave an IC50 (MCF-7) of 8.95 µM, an IC50 (T-47D*) of 5 µM and an IC50 (ZR-75-1) of 3.57 µM. For the same molecule, the IC50 (MDA-MB-231) was 7.49 µM, the IC50 (MX-1) was 6.38 µM and the IC50 (HCC38) was 7.76 µM. The IC50 (Bcap-37) was 7.66 µM, the “sensitivity of Her2+ breast cancer cells within the panel” value [2] was “among the most sensitive cells” and the “cytotoxicity of HDAC6 inhibitor alone” value (MDA-MB-453 [3]) was “not cytotoxic”. For the same molecule, the “cytotoxicity of HDAC6 inhibitor alone” value (BT-474) was “not cytotoxic”, the “potentiation of GDC-0941 (decrease in the IC50 value)” value [4] was “GDC-0941 becomes more potent” and the “Her2 protein, p-EGFR and p-AKT levels” value [5] was “decrease of Her2 protein, p-EGFR, and p-AKT”.
For `O=C(NO)c1cnc(NC2(c3cccc(F)c3)CCCCC2)nc1` [Compound C, 2-((1-(3-fluorophenyl)cyclohexyl)amino)-N-hydroxypyrimidine-5-carboxamide], the “cytotoxicity of HDAC6 inhibitor alone” value (MDA-MB-453 [3]) was “not cytotoxic”, the “sensitization to lapatinib and PI3K inhibitors” value (MDA-MB-453 [3]; MDA-MB-453, lapatinib, IPI-145, GDC-0941 and CAL-101) was “able to sensitize” and the “cytotoxicity of HDAC6 inhibitor alone” value (BT-474) was “not cytotoxic”. The “sensitization to lapatinib and PI3K inhibitors” value (BT-474; BT-474, lapatinib, IPI-145, GDC-0941 and CAL-101) was “able to sensitize”, the cancer cell migration [6] was “blocked cancer cell migration” and the “potency as HDAC6 selective inhibitor” value (HDAC6) was “low nM potency”. For the same molecule, the “potentiation of GDC-0941 (decrease in the IC50 value)” value [4] was “GDC-0941 becomes more potent”.
